Results from ChEMBL document CHEMBL1155919, “Inhibition of human mitochondrial carbonic anhydrases VA and VB with para-(4-phenyltriazole-1-yl)-benzenesulfonamide derivatives” (Bioorg Med Chem Lett, 2008).

Columns and labels:
Carbonic anhydrase 1 = Carbonic anhydrase 1 (Homo sapiens, UniProt P00915)
Carbonic anhydrase 2 = Carbonic anhydrase 2 (Homo sapiens, UniProt P00918)
[1] = biological target: Carbonic anhydrase 5A, mitochondrial (Homo sapiens, UniProt P35218)
[2] = biological target: Carbonic anhydrase 5B, mitochondrial (Homo sapiens, UniProt Q9Y2D0)
Chain of Carbonic anhydrase 5B, mitochondrial (Q9Y2D0 whole entry): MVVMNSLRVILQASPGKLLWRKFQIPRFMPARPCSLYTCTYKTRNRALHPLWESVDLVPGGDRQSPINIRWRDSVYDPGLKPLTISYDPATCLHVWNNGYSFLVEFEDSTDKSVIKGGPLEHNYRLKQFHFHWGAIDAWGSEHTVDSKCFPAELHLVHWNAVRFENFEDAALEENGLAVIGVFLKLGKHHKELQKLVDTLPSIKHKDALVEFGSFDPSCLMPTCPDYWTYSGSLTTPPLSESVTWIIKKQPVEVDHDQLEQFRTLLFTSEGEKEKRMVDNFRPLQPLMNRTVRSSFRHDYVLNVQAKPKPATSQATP

Chain of Carbonic anhydrase 1 (P00915 whole entry): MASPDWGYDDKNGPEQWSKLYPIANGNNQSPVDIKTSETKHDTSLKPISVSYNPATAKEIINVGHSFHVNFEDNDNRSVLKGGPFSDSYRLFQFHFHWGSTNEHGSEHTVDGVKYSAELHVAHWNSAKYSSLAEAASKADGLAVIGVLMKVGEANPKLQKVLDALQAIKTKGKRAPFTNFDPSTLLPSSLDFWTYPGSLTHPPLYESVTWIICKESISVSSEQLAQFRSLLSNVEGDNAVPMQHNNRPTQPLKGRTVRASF
Chain of Carbonic anhydrase 5A, mitochondrial (P35218 whole entry): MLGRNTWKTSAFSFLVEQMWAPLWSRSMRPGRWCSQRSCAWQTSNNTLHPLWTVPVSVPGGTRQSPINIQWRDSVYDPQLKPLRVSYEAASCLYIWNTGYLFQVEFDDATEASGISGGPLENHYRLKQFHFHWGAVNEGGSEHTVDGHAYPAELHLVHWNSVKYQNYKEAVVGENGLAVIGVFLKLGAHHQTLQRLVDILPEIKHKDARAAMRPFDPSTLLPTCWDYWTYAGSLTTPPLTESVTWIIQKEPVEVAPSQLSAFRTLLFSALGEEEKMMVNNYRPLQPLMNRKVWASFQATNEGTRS

SMILES | Ki (Carbonic anhydrase 1) | Ki (Carbonic anhydrase 2) | Ki [1] | Ki [2]
NS(=O)(=O)c1ccc(-n2cc(-c3ccc(F)cc3)nn2)cc1 | 4600 nM | 40.3 nM | 14.2 nM | 11.2 nM
Cc1ccc(-c2cn(-c3ccc(S(N)(=O)=O)cc3)nn2)cc1 | 2100 nM | – | 12.8 nM | 10.6 nM
NS(=O)(=O)c1ccc(-n2cc(-c3ccccc3)nn2)cc1 | 5100 nM | – | 17.8 nM | 10.6 nM
COc1ccc(-c2cn(-c3ccc(S(N)(=O)=O)cc3)nn2)cc1 | 2200 nM | 8.4 nM | 10.6 nM | 51.8 nM
